Measured values reported in ChEMBL document CHEMBL6121066, “Structure-Activity Relationship Studies of DNA Methyltransferase 1 Monovalent Degraders” (J Med Chem, 2025).
The source made the active and inactive calls. The calls are words filed in the database; no cut-off is given here.

Key:
[1] = tested on: NCI-H1299; experiment: Induction of molecular glue effect mediated DNMT1 degradation in human NCI-H1299 cells assessed as reduction in DNMT1 protein level at 100 nM preincubated with MLN4924 for 2 hrs followed by compound addition and measured after 24 hrs by Western blot analysis; assay type: cell-based
[2] = tested on: HCT-116; experiment: Induction of molecular glue effect mediated DNMT1 degradation in human HCT-116 cells transfected with WWP1 siRNA assessed as reduction in DNMT1 protein level at 100 nM measured after 24 hrs by Western blot analysis; assay type: cell-based
[3] = tested on: HCT-116; experiment: (§1) Induction of molecular glue effect mediated DNMT1 degradation in human HCT-116 cells assessed as reduction in DNMT1 protein level incubated for 24 hrs by Western blot analysis; assay type: cell-based
[4] = as §1; assay type: cell-based; conditions: HCT-116, 24 h
[5] = biological target: DNA (cytosine-5)-methyltransferase 3A (Homo sapiens) (UniProt Q9Y6K1); experiment: Inhibition of human DNMT3A using lambda DNA and SAM as substrate at 1 uM by radioisotope-based MT HotSpot assay relative to control
[6] = tested on: HCT-116; experiment: Induction of molecular glue effect mediated DNMT1 degradation in human HCT-116 cells transfected with Smurf2 siRNA assessed as reduction in DNMT1 protein level at 100 nM measured after 24 hrs by Western blot analysis; assay type: cell-based
[7] = biological target: T1, Histone-lysine N-methyltransferase EHMT1 (Homo sapiens) (UniProt Q9H9B1); experiment: Inhibition of human GLP using Histone H3 and SAM as substrate at 1 uM by radioisotope-based MT HotSpot assay relative to control
T1 sequence (whole entry): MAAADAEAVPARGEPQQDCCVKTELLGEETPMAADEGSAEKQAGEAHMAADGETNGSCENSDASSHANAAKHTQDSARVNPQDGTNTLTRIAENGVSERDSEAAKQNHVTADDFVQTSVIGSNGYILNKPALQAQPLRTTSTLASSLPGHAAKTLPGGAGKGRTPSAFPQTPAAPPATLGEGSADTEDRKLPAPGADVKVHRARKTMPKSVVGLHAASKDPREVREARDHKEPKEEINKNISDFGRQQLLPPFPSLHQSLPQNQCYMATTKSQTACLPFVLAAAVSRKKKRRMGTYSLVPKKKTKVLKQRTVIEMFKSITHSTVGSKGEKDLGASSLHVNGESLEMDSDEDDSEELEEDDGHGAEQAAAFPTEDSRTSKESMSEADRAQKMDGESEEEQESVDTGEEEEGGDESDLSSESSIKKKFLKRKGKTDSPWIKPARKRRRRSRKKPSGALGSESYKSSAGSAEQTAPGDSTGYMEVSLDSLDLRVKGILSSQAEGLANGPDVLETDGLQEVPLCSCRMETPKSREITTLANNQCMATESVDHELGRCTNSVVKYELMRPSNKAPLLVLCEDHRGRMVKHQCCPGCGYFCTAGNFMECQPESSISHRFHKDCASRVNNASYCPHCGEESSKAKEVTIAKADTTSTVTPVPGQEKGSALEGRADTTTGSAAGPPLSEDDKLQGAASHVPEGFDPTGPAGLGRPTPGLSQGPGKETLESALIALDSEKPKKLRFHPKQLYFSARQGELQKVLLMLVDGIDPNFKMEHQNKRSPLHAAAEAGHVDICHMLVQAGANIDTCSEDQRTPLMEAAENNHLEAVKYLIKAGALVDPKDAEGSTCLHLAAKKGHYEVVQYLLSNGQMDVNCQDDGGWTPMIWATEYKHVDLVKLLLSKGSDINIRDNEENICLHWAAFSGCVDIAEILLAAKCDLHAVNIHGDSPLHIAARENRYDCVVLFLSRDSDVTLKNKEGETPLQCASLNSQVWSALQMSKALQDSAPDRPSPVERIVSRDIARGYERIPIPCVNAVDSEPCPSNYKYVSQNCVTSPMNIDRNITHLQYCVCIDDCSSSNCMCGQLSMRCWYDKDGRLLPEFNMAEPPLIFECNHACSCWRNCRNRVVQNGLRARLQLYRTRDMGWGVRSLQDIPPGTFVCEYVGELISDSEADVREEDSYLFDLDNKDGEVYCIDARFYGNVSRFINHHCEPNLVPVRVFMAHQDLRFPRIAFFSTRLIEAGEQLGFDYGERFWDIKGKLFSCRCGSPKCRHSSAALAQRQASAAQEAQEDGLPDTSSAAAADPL

[8] = tested on: HCT-116; experiment: Induction of molecular glue effect mediated DNMT1 degradation in human HCT-116 cells assessed as reduction in DNMT1 protein level by measuring maximal efficacy at 1 uM incubated for 24 hrs by Western blot analysis relative to control; assay type: cell-based
[9] = tested on: HCT-116; experiment: Induction of molecular glue effect mediated DNMT1 degradation in human HCT-116 cells transfected with NEDD4 siRNA assessed as reduction in DNMT1 protein level at 100 nM measured after 24 hrs by Western blot analysis; assay type: cell-based
[10] = Induction of molecular glue effect mediated DNMT1 degradation in human MDA-MB-468 cells assessed as reduction in DNMT1 protein level incubated for 24 hrs by Western blot analysis; assay type: cell-based; conditions: MDA-MB-468, 24 h
[11] = tested on: NCI-H1299; experiment: Effect on DNMT1 mRNA level in human NCI-H1299 cells at 500 nM incubated for 24 hrs by RT-qPCR analysis; assay type: functional, cell-based
[12] = tested on: HCT-116; experiment: Antiproliferative activity against human HCT-116 cells assessed as inhibition of cell growth upto 15 uM incubated for 7 days by CCK8 assay relative to control; assay type: functional; conditions: time 7 day, up to 15 µM
[13] = Induction of molecular glue effect mediated DNMT1 degradation in human NCI-H1299 cells assessed as reduction in DNMT1 protein level incubated for 24 hrs by Western blot analysis; assay type: cell-based; conditions: NCI-H1299, 24 h
[14] = biological target: Histone-lysine N-methyltransferase EZH2 (Homo sapiens) (UniProt Q15910); experiment: Inhibition of human EZH2 using core histone and SAM as substrate at 1 uM by radioisotope-based MT HotSpot assay relative to control
[15] = tested on: MDA-MB-468; experiment: Antiproliferative activity against human MDA-MB-468 cells assessed as inhibition of cell growth upto 10 uM incubated for 7 days by CCK8 assay relative to control; assay type: functional; conditions: time 7 day, up to 10 µM
[16] = biological target: Histone-lysine N-methyltransferase 2A (Homo sapiens) (UniProt Q03164); experiment: Inhibition of human MLL1 using nucleosomes and SAM as substrate at 1 uM by radioisotope-based MT HotSpot assay relative to control
[17] = tested on: HCT-116; experiment: Induction of molecular glue effect mediated DNMT1 degradation in human HCT-116 cells assessed as reduction in DNMT1 protein level at 500 nM measured after 24 hrs by Western blot analysis relative to control; assay type: cell-based; parameters: scale not given: the % may be the effect or the level left
[18] = biological target: Protein arginine N-methyltransferase 1 (Homo sapiens) (UniProt Q99873); experiment: Inhibition of human PRMT1 using histone H4 and SAM as substrate at 1 uM by radioisotope-based MT HotSpot assay relative to control
[19] = tested on: HCT-116; experiment: Induction of molecular glue effect mediated DNMT1 degradation in human HCT-116 cells assessed as reduction in DNMT1 protein level at 500 nM by Western blot analysis; assay type: cell-based; conditions: time 2-24 hrs

Histone-lysine N-methyltransferase EZH2 (Homo sapiens), sequence (Q15910 whole entry, looked up): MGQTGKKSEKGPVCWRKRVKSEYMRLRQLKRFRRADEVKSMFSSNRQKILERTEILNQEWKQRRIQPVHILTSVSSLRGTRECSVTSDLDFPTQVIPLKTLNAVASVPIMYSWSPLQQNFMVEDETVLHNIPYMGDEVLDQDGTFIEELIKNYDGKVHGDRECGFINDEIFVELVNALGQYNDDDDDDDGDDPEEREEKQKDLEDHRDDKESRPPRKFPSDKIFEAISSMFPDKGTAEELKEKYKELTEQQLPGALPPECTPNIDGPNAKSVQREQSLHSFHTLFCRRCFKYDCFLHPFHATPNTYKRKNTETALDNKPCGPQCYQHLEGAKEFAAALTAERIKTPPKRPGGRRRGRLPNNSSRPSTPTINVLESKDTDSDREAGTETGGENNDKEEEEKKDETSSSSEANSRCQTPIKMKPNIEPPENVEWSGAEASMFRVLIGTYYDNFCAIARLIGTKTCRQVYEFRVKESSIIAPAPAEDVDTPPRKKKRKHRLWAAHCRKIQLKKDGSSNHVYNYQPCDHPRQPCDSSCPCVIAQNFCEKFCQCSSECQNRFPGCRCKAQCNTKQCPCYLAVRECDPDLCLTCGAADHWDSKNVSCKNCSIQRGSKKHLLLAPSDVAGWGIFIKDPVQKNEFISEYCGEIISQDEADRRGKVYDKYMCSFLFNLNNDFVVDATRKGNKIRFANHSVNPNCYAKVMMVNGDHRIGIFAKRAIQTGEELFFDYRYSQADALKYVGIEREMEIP
DNA (cytosine-5)-methyltransferase 3A (Homo sapiens), sequence (Q9Y6K1 whole entry, looked up): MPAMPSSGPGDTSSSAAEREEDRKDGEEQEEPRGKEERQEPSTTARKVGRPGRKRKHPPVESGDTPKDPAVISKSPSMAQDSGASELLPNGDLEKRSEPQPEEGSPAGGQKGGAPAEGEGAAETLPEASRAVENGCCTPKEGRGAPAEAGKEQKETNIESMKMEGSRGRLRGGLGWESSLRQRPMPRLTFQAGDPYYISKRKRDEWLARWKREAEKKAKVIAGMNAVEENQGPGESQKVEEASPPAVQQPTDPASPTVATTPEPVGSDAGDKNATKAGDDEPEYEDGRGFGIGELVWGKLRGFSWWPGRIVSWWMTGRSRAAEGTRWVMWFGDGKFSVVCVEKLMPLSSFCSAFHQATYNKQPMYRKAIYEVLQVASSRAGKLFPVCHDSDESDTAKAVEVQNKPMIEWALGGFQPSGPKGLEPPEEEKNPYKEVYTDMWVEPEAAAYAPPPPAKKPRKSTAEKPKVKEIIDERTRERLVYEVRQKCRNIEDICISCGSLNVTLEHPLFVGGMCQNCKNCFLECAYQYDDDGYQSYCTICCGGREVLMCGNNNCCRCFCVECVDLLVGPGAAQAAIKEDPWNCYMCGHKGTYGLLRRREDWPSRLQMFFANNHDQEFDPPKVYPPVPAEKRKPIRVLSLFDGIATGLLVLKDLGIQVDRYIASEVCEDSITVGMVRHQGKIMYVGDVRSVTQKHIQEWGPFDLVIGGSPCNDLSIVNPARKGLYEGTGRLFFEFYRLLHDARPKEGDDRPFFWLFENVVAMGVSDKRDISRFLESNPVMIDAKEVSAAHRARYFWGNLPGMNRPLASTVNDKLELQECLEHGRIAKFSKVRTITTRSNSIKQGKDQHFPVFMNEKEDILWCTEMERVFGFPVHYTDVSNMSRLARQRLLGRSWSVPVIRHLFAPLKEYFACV
Protein arginine N-methyltransferase 1 (Homo sapiens), sequence (Q99873 whole entry, looked up): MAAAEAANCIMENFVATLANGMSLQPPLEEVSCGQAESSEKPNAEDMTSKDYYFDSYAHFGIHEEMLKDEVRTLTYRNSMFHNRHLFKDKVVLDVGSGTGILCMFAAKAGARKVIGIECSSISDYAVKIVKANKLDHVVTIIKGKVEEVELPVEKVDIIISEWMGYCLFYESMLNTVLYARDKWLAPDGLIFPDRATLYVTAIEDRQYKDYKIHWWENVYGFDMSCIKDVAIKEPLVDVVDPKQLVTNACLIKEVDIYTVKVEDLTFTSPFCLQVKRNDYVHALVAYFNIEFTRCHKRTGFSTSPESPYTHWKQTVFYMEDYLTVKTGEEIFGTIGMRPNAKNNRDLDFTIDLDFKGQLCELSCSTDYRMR

DC50 [4]: 35 nM | inhibition [5]: < 20% | inhibition [7]: < 20% | DC50 [10]: 254 nM | DC50 [13]: 86 nM | inhibition [14]: < 20% | inhibition [16]: < 20% | inhibition [18]: < 20%
Compound: CCc1c(C#N)c(SC(C(N)=O)c2ccccc2)nc(N(C)CC(=O)NC)c1C#N (centres undefined)
Activity [1]: Active | Activity [2]: Active | Activity [3]: Dose-dependent-effect | Activity [6]: Active | Emax [8]: 89% | Activity [9]: Active | Activity [11]: inactive | inhibition (INH) [12]: <50% | inhibition (INH) [15]: <50% | Activity [17]: 100% | Activity [19]: Time-dependent-effect
